Laboratory results taken from patent US11013779B2, “Small molecule therapeutic inhibitors against picornaviruses, caliciviruses, and coronaviruses” (Kansas State University Research Foundation, priority 2016, dated 2021).

Experiments:
trypsin = trypsin (Homo sapiens, UniProt P07477); assay type: biochemical
α-chymotrypsin = assay type: biochemical, human
thrombin = thrombin (Homo sapiens, UniProt P00734); assay type: biochemical
plasmin = plasmin (Homo sapiens, UniProt P00747); assay type: biochemical
Factor Xa = Factor Xa (Homo sapiens, UniProt P00742); assay type: biochemical
Factor Xa, sequence (P00742 235-488 limits assumed): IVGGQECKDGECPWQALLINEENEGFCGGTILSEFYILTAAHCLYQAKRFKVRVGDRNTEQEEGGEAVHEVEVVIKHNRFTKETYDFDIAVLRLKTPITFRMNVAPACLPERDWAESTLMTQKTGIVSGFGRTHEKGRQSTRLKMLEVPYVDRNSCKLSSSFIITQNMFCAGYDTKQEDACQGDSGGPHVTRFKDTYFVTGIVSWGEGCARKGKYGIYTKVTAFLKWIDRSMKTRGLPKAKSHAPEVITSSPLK
Factor Xa, sequence (P00742 41-179 partner limits assumed): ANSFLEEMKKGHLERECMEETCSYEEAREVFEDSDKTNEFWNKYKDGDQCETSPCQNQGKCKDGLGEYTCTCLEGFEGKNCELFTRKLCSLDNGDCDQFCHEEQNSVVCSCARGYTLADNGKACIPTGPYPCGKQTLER

plasmin, sequence (P00747 581-810 limits assumed): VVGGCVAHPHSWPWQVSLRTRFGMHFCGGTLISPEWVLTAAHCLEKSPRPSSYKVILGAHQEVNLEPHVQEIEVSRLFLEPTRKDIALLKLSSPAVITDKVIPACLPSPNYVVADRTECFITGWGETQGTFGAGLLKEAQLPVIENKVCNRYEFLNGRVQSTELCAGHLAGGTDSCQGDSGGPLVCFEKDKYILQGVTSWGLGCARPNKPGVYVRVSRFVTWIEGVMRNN
plasmin, sequence (P00747 97-580 partner limits assumed): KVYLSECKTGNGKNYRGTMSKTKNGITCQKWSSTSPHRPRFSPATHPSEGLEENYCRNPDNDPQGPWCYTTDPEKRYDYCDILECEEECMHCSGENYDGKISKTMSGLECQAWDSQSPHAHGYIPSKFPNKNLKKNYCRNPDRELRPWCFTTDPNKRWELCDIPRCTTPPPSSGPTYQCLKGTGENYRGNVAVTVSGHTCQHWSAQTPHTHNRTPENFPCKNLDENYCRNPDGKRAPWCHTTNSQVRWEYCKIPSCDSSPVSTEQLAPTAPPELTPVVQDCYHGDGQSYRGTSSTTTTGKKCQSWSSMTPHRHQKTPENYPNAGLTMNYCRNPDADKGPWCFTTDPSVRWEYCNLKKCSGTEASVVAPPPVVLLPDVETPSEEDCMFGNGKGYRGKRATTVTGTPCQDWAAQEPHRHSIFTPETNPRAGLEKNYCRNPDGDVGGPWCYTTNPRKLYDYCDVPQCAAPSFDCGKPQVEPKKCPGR

CC(C)C[C@H](NC(=O)OC1CCN(C(=O)OC(C)(C)C)CC1)C(=O)N[C@@H](C[C@@H]1CCNC1=O)C(O)S(=O)(=O)[O-].[Na+] (some centres unmarked) [GC868]
No or minimal inhibition: inhibition of trypsin (trypsin) | inhibition of α-chymotrypsin (α-chymotrypsin) | inhibition of thrombin (thrombin) | inhibition of plasmin (plasmin) | inhibition of Factor Xa (Factor Xa)
